A short description of one data set: Kinetic solubility. The format is physicochemical. The protocol: Solubility assays were carried out on a Biomek FX lab automation workstation (Beckman Coulter, Inc., Fullerton, CA) using µSOL Evolution software (pION Inc., Woburn, MA). Compound stock (10 mM in DMSO, 10 µL) was added to 1-propanol (190 µL) to make a reference stock plate. Reference stock solution (5 µL) was mixed with 1-propanol (70 µL) and citrate phosphate buffered saline (75 µL) to make the reference plate and the UV spectrum (250 nm–500 nm) of the […] was read. Test compound stock (10 mM in DMSO, 6 µL) was added to buffer (594 µL) in a 96-well storage plate and mixed. The storage plate was sealed and incubated at room temperature for 18 h. The suspension was then filtered through a 96-well filter plate (pION Inc., Woburn, MA). Filtrate (75 µL) was mixed with 1-propanol (75 µL) to make the sample plate, and the UV spectrum (250 nm – 500 nm) of the sample plate was read. Calculation was carried out by µSOL Evolution software based on the […] (area under curve) of UV spectrum of the sample plate and the reference plate. All compounds were tested in triplicate.

Another data set has as its system rat plasma proteins. The data set can be described thus: Plasma protein binding (RED), rat. The settings on record: average of 20, 4, 0.8 µM. The format is in vitro ADME. The protocol: (§1) A Rapid Equilibrium Dialysis (RED) Plate (Thermo Scientific, catalog #, PI-90007) was used to determine the percentage of compound binding to plasma proteins. The positive control for this experiment was propranolol-HCl (10 mM in DMSO) and the internal standard was warfarin (2 µM in methanol). 10 mM stocks of compound in DMSO were diluted with DMSO acetonitrile (1:4, v:v) to three different intermediate concentrations: high (2 mM), medium (0.4 mM) and low (0.08 mM). A 10 mM stock of propranolol in DMSO was diluted to 0.4 mM concentration in DMSO:acetonitrile (1:4 v:v). In 16 Eppendorf tubes, the control (10 µL) or each of three compound dilutions (10 µL) were each added to separate aliquots of mouse, rat, dog, and human plasma (990 µL). In the RED plate, potassium phosphate buffer (500 µL, 0.1 M, pH 7.4, 37 °C) was placed in every white well and each plasma/compound mixture was added to each of 3 red wells. […] The compounds and internal standard were detected by selected ion recording (SIR). Using the peak area ratio of compound to warfarin from the SIR spectra, the percentage of free compound [1] and bound compound [2] were calculated using the following equations: (1) % free = (concentration buffer chamber/concentration plasma chamber)*100, and (2) % bound = 100 − % free.

The test system of the next data set is dog plasma proteins. The data set can be described thus: Plasma protein binding (RED), dog. Type of data set: in vitro ADME. The conditions noted are these: average of 20, 4, 0.8 µM. The protocol:
as §1

Another data set deals with Caco-2 cells. The data set can be described thus: Caco-2 permeability. The conditions noted are these: for Caco-2 Efflux Ratio: B→A / A→B. The format is in vitro ADME. The protocol: Caco-2 cells were maintained at 37 °C in a humidified incubator with an atmosphere of 5% CO2. The cells were cultured in Eagle's Minimum Essential Medium (EMEM) containing 20% fetal bovine serum (FBS) in 75 cm^2 flasks, supplemented with 100 units/ml of penicillin and 100 µg/mL of streptomycin. The Caco-2 cells were seeded onto inserts of a 96-well plate (HTS-Transwell inserts, surface area: 0.143 cm^2, Corning) at a cell density of 0.5 × 10^5 cells/insert. The culture medium was replaced every 2 days, and the cells were maintained for 7 days at 37 °C and 5% CO2. Caco-2 cell monolayers with trans epithelial electrical resistance (TEER) values greater than 400 Ω cm^2 were used for the subsequent assays. The permeability assay was initiated by adding an appropriate volume of HBSS/HEPES containing test compounds to either the apical (A to B) or basolateral (B to A) side of the monolayer, then adding the blank HBSS/HEPES buffer in the receiving compartment, the basolateral or apical side of the monolayer. The Caco-2 cell monolayers were then incubated for 2 h at 37 °C. To make a sample plate, fractions were collected from the basolateral side or apical side and quenched by adding onefold volume of acetonitrile with internal standard (2 µM warfarin) to each well. In a reference plate, the above HBSS/HEPES buffer containing test compounds were diluted with quenching solvent the same as that in the sample plate. 10 µL of supernatants were injected and analysis by UPLC/MS (Waters; Milford, MA). The test compound concentrations were quantified by comparing the sample well to the reference well via peak areas. The A→B (or B→A) apparent permeability coefficients (Papp, 10^–6 cm/s) of each compound were calculated using the equation, Papp = dQ/dt × 1/AC0. The flux of a drug across the monolayer was dQ/dt (µmol/s). The initial drug concentration on the apical or basolateral side was C0 (µM). The surface area of the monolayer was A (cm^2). The efflux ratio is the ratio of apparent permeability for a test compound in the basolateral to apical (B → A) direction relative to that in the A → B direction. All compounds were tested in triplicate.

Here are results for two compounds from publication PMC7893776, “Selecting an anti-malarial clinical candidate from two potent dihydroisoquinolones” (Malaria Journal, 2021).

Consider `N#Cc1cc(NC(=O)C2c3ccccc3C(=O)N(CC(F)(F)F)C2c2cn[nH]c2)ccc1F` (racemic) [(r)-SJ311], for which the Kinetic solubility in “Kinetic solubility” (pH 3) is given as 80 ± 7 µM; in the data set “Kinetic solubility” (pH 5) it was 80 ± 7 µM; in the data set “Kinetic solubility” (pH 7.4), 66 ± 7 µM. Also, the “% bound” value was found to be 91.0 ± 0.1% with rat plasma proteins and 90.0 ± 1.0% in the data set with dog plasma proteins. The “Permeability, Caco-2” value in the data set with Caco-2 cells (Apical to Basal) is reported as 12.5 ± 0.7 10^–6 cm/s; in the data set on Caco-2 cells (Basolateral to Apical), 16.6 ± 2.0 10^–6 cm/s. Also, the “Caco-2 Efflux Ratio” value in the data set with Caco-2 cells came to 1.34 ± 0.21.

Regarding `N#Cc1cc(NC(=O)C2c3ccccc3C(=O)N(CC(F)(F)F)C2c2cccnc2)ccc1F` (racemic) [(r)-SJ733], the Kinetic solubility in “Kinetic solubility” (pH 3) was 84 ± 3 µM; in the data set “Kinetic solubility” (pH 5), 84 ± 3 µM; in “Kinetic solubility” (pH 7.4), 65 ± 4 µM. The “% bound” value in the data set on rat plasma proteins is 90.0 ± 1.7%; in the data set on dog plasma proteins, 88.3 ± 3.1%. Besides, the “Permeability, Caco-2” value in the data set on Caco-2 cells (Apical to Basal) is 9.4 ± 1.6 10^–6 cm/s; with Caco-2 cells (Basolateral to Apical), 11.0 ± 1.6 10^–6 cm/s. Also, the “Caco-2 Efflux Ratio” value in the data set on Caco-2 cells is on record as 1.17 ± 0.04.
